Test results reported in ChEMBL document CHEMBL1201862, “PubChem BioAssay data set” (2004).
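Values below derive from 48-hour exposures of cells grown in 96-well plates, with endpoints linearly interpolated between the two concentrations bracketing the appropriate inhibition level. GI50 is the concentration that inhibits growth by half.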 The source made the active and inactive calls. No stated cut-off is given here; in the data, active = GI50 up to about 1.1 µM and inactive = higher.

Assays:
Test in all cases: NCI anticancer screen, dose series, 48 h
SK-MEL-2 = test system: SK-MEL-2
HOP-18 = test system: HOP-18
COLO 205 = test system: COLO 205
HT-29 = test system: HT-29
LXFL 529 = test system: LXFL 529
Malme-3M = test system: Malme-3M
OVCAR-5 = test system: OVCAR-5
SK-OV-3 = test system: SK-OV-3
OVCAR-3 = test system: OVCAR-3
SF-539 = test system: SF-539
DMS-273 = test system: DMS-273
A498 = test system: A498
RXF 393 = test system: RXF 393
CCRF-CEM = test system: CCRF-CEM
XF498 = test system: XF498
NCI-H23 = test system: NCI-H23
SNB-78 = test system: SNB-78
SW-620 = test system: SW-620
SF-295 = test system: SF-295
786-0 = test system: 786-0
U-251 = test system: U-251
DMS-114 = test system: DMS-114
NCI-H226 = test system: NCI-H226
SF-268 = test system: SF-268
A549 = test system: A549
SNB-75 = test system: SNB-75
ACHN = test system: ACHN
HCT-15 = test system: HCT-15
SNB-19 = test system: SNB-19
HCT-116 = test system: HCT-116
DLD-1 = test system: DLD-1
UACC-257 = test system: UACC-257
SN12C = test system: SN12C
NCI-H522 = test system: NCI-H522
SK-MEL-5 = test system: SK-MEL-5
HOP-62 = test system: HOP-62
IGROV-1 = test system: IGROV-1
M14 = test system: M14
LOX IMVI = test system: LOX IMVI
KM12 = test system: KM12
K562 = test system: K562
CAKI-1 = test system: CAKI-1
HL-60 = test system: HL-60
RXF 631 = test system: RXF 631
RPMI-8226 = test system: RPMI-8226
OVCAR-4 = test system: OVCAR-4
KM-20L2 = test system: KM-20L2
MOLT-4 = test system: MOLT-4
UACC-62 = test system: UACC-62
SK-MEL-28 = test system: SK-MEL-28
SR = test system: SR
NCI-H460 = test system: NCI-H460
OVCAR-8 = test system: OVCAR-8
TK-10 = test system: TK-10
EKVX = test system: EKVX
HCC 2998 = test system: HCC 2998
UO-31 = test system: UO-31
HOP-92 = test system: HOP-92
M19-MEL = test system: M19-MEL

In the case of `COc1ccccc1NC(=O)C1=C(C)NC(C)=C(C(=O)Nc2ccccc2OC)C1c1ccc([N+](=O)[O-])cc1`, the GI50 (SK-MEL-2) is reported as 74.5 µM (inactive), the GI50 (HOP-18) is reported as > 100 µM (inactive) and the GI50 (COLO 205) is reported as 56.2 µM (inactive). For the same molecule, the GI50 (HT-29) was 80.5 µM (inactive), the GI50 (LXFL 529) was 48.2 µM (inactive) and the GI50 (Malme-3M) was > 100 µM (inactive). For the same molecule, the GI50 (OVCAR-5) was 22.4 µM (inactive), the GI50 (SK-OV-3) was > 100 µM (inactive) and the GI50 (OVCAR-3) was > 100 µM (inactive). For the same molecule, the GI50 (SF-539) was > 100 µM (inactive), the GI50 (DMS-273) was 86.7 µM (inactive) and the GI50 (A498) was > 100 µM (inactive). For the same molecule, the GI50 (RXF 393) was 60.4 µM (inactive), the GI50 (CCRF-CEM) was 19.5 µM (inactive) and the GI50 (XF498) was 3.5 µM (inactive). For the same molecule, the GI50 (NCI-H23) was 58.6 µM (inactive), the GI50 (SNB-78) was > 100 µM (inactive) and the GI50 (SW-620) was 93.1 µM (inactive). For the same molecule, the GI50 (SF-295) was 13.4 µM (inactive), the GI50 (786-0) was 99.5 µM (inactive) and the GI50 (U-251) was 86.1 µM (inactive). The GI50 (DMS-114) was 9.12 µM (inactive), the GI50 (NCI-H226) was > 100 µM (inactive) and the GI50 (SF-268) was > 100 µM (inactive). The GI50 (A549) was > 100 µM (inactive), the GI50 (SNB-75) was > 100 µM (inactive) and the GI50 (ACHN) was 52.8 µM (inactive). The GI50 (HCT-15) was > 100 µM, the GI50 (SNB-19) was 89.1 µM (inactive) and the GI50 (HCT-116) was 60.5 µM (inactive). For the same molecule, the GI50 (DLD-1) was 46.6 µM (inactive), the GI50 (UACC-257) was > 100 µM (inactive) and the GI50 (SN12C) was > 100 µM (inactive). The GI50 (NCI-H522) was 24.4 µM (inactive), the GI50 (SK-MEL-5) was 30.7 µM (inactive) and the GI50 (HOP-62) was > 100 µM (inactive). The GI50 (IGROV-1) was > 100 µM (inactive), the GI50 (M14) was 85.7 µM (inactive) and the GI50 (LOX IMVI) was 48.9 µM (inactive). The GI50 (KM12) was 51.6 µM (inactive), the GI50 (K562) was 49.3 µM (inactive) and the GI50 (CAKI-1) was 21.7 µM (inactive). The GI50 (HL-60) was 39.2 µM (inactive), the GI50 (RXF 631) was 56.8 µM (inactive) and the GI50 (RPMI-8226) was 18.5 µM (inactive). For the same molecule, the GI50 (OVCAR-4) was 56.2 µM (inactive), the GI50 (KM-20L2) was > 100 µM (inactive) and the GI50 (MOLT-4) was 7.23 µM (inactive). The GI50 (UACC-62) was 59.6 µM (inactive), the GI50 (SK-MEL-28) was 27 µM (inactive) and the GI50 (SR) was 67.5 µM (inactive). The GI50 (NCI-H460) was 28.8 µM (inactive), the GI50 (OVCAR-8) was > 100 µM (inactive) and the GI50 (TK-10) was 74.5 µM (inactive). For the same molecule, the GI50 (EKVX) was 82.6 µM (inactive).

For `O=C(CC1(O)C(=O)Nc2c(Cl)ccc(Cl)c21)c1ccc(F)cc1` (stereo not given), the GI50 (SK-MEL-2) was 48.5 µM (inactive), the GI50 (HOP-18) was 29.6 µM (inactive) and the GI50 (COLO 205) was 96.6 µM (inactive). The GI50 (HT-29) was 40.4 µM (inactive), the GI50 (LXFL 529) was 19.4 µM (inactive) and the GI50 (Malme-3M) was 69.5 µM (inactive). The GI50 (OVCAR-5) was > 100 µM (inactive), the GI50 (SK-OV-3) was > 100 µM (inactive) and the GI50 (OVCAR-3) was 34.8 µM (inactive). For the same molecule, the GI50 (DMS-273) was 33.7 µM (inactive), the GI50 (RXF 393) was 29.5 µM (inactive) and the GI50 (CCRF-CEM) was 25.9 µM (inactive). The GI50 (XF498) was 32.7 µM (inactive), the GI50 (NCI-H23) was 23.2 µM (inactive) and the GI50 (HCC 2998) was 82.4 µM (inactive). The GI50 (SNB-78) was 35.6 µM (inactive), the GI50 (SW-620) was 34.1 µM (inactive) and the GI50 (SF-295) was 36 µM (inactive). The GI50 (786-0) was 31.2 µM (inactive), the GI50 (U-251) was 67.3 µM (inactive) and the GI50 (DMS-114) was 22.7 µM (inactive). For the same molecule, the GI50 (NCI-H226) was 24.8 µM (inactive), the GI50 (SF-268) was 36.1 µM (inactive) and the GI50 (A549) was 58.1 µM (inactive). The GI50 (SNB-75) was 24.1 µM (inactive), the GI50 (ACHN) was 66.1 µM (inactive) and the GI50 (HCT-15) was 38.7 µM. The GI50 (SNB-19) was 46.6 µM (inactive), the GI50 (DLD-1) was 52.5 µM (inactive) and the GI50 (UACC-257) was 33.5 µM (inactive). The GI50 (SN12C) was 60.1 µM (inactive), the GI50 (NCI-H522) was 30.3 µM (inactive) and the GI50 (SK-MEL-5) was 17.9 µM (inactive). The GI50 (HOP-62) was 46.7 µM (inactive), the GI50 (UO-31) was 44.5 µM (inactive) and the GI50 (M14) was 38.8 µM (inactive). The GI50 (HOP-92) was 30.4 µM (inactive), the GI50 (LOX IMVI) was 32.7 µM (inactive) and the GI50 (KM12) was 43 µM (inactive). For the same molecule, the GI50 (K562) was 23.3 µM (inactive), the GI50 (CAKI-1) was 44.7 µM (inactive) and the GI50 (HL-60) was 28.4 µM (inactive). For the same molecule, the GI50 (RXF 631) was 37 µM (inactive), the GI50 (RPMI-8226) was 18 µM (inactive) and the GI50 (OVCAR-4) was 31 µM (inactive). The GI50 (KM-20L2) was 39.8 µM (inactive), the GI50 (MOLT-4) was 25 µM (inactive) and the GI50 (SK-MEL-28) was > 100 µM (inactive). For the same molecule, the GI50 (NCI-H460) was 54.8 µM (inactive), the GI50 (OVCAR-8) was 36.3 µM (inactive) and the GI50 (TK-10) was 55.8 µM (inactive). For the same molecule, the GI50 (EKVX) was 44.4 µM (inactive).

With `COc1cc(C(=O)C/C(CCC(=O)Nc2ccc(Cl)cc2Cl)=N/NC(=O)C(=O)NN)ccc1O` the GI50 (HOP-18) was > 100 µM (inactive), the GI50 (COLO 205) was > 100 µM (inactive) and the GI50 (HT-29) was > 100 µM (inactive). For the same molecule, the GI50 (LXFL 529) was > 100 µM (inactive), the GI50 (Malme-3M) was > 100 µM (inactive) and the GI50 (OVCAR-5) was > 100 µM (inactive). For the same molecule, the GI50 (SK-OV-3) was > 100 µM (inactive), the GI50 (OVCAR-3) was > 100 µM (inactive) and the GI50 (SF-539) was > 100 µM (inactive). For the same molecule, the GI50 (A498) was > 100 µM (inactive), the GI50 (RXF 393) was > 100 µM (inactive) and the GI50 (CCRF-CEM) was > 100 µM (inactive). For the same molecule, the GI50 (XF498) was > 100 µM (inactive), the GI50 (NCI-H23) was > 100 µM (inactive) and the GI50 (HCC 2998) was > 100 µM (inactive). For the same molecule, the GI50 (SW-620) was > 100 µM (inactive), the GI50 (SF-295) was > 100 µM (inactive) and the GI50 (786-0) was > 100 µM (inactive). For the same molecule, the GI50 (U-251) was > 100 µM (inactive), the GI50 (DMS-114) was > 100 µM (inactive) and the GI50 (NCI-H226) was > 100 µM (inactive). For the same molecule, the GI50 (SF-268) was > 100 µM (inactive), the GI50 (A549) was > 100 µM (inactive) and the GI50 (SNB-75) was > 100 µM (inactive). For the same molecule, the GI50 (ACHN) was > 100 µM (inactive), the GI50 (HCT-15) was > 100 µM and the GI50 (SNB-19) was > 100 µM (inactive). For the same molecule, the GI50 (HCT-116) was > 100 µM (inactive), the GI50 (DLD-1) was > 100 µM (inactive) and the GI50 (UACC-257) was > 100 µM (inactive). For the same molecule, the GI50 (SN12C) was > 100 µM (inactive), the GI50 (NCI-H522) was > 100 µM (inactive) and the GI50 (SK-MEL-5) was > 100 µM (inactive). For the same molecule, the GI50 (HOP-62) was > 100 µM (inactive), the GI50 (UO-31) was > 100 µM (inactive) and the GI50 (IGROV-1) was > 100 µM (inactive). The GI50 (M14) was > 100 µM (inactive), the GI50 (HOP-92) was > 100 µM (inactive) and the GI50 (LOX IMVI) was 43.3 µM (inactive). The GI50 (KM12) was > 100 µM (inactive), the GI50 (K562) was 28.1 µM (inactive) and the GI50 (CAKI-1) was 46.2 µM (inactive). For the same molecule, the GI50 (HL-60) was > 100 µM (inactive), the GI50 (RXF 631) was > 100 µM (inactive) and the GI50 (M19-MEL) was > 100 µM (inactive). The GI50 (OVCAR-4) was > 100 µM (inactive), the GI50 (KM-20L2) was > 100 µM (inactive) and the GI50 (UACC-62) was 53.8 µM (inactive). For the same molecule, the GI50 (SK-MEL-28) was > 100 µM (inactive), the GI50 (NCI-H460) was > 100 µM (inactive) and the GI50 (OVCAR-8) was > 100 µM (inactive). For the same molecule, the GI50 (TK-10) was > 100 µM (inactive) and the GI50 (EKVX) was 97.7 µM (inactive).
